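Cells were grown in 96-well plates and exposed to each compound for 48 hours at five concentrations; endpoints were interpolated linearly between bracketing concentrations, or set to the highest concentration if not reached. GI50 = concentration required for 50% inhibition of growth.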 Active and inactive are the calls of the source. No stated cut-off is given here; in the data, active = GI50 up to about 1.1 µM and inactive = higher.
Experiments:
Assay in all cases: inhibition of tumour cell growth, NCI panel, 48 h
SK-OV-3 = tested on: SK-OV-3
UACC-257 = tested on: UACC-257
SK-MEL-5 = tested on: SK-MEL-5
OVCAR-5 = tested on: OVCAR-5
Hs-578T = tested on: Hs-578T
OVCAR-8 = tested on: OVCAR-8
DU-145 = tested on: DU-145
HCT-116 = tested on: HCT-116
RPMI-8226 = tested on: RPMI-8226
SK-MEL-28 = tested on: SK-MEL-28
U-251 = tested on: U-251
SK-MEL-2 = tested on: SK-MEL-2
RXF 393 = tested on: RXF 393
OVCAR-4 = tested on: OVCAR-4
TK-10 = tested on: TK-10
CAKI-1 = tested on: CAKI-1
SNB-19 = tested on: SNB-19
CCRF-CEM = tested on: CCRF-CEM
NCI/ADR-RES = tested on: NCI/ADR-RES
HCT-15 = tested on: HCT-15

| Compound | GI50 (SK-OV-3) | GI50 (UACC-257) | GI50 (SK-MEL-5) | GI50 (OVCAR-5) | GI50 (Hs-578T) | GI50 (OVCAR-8) | GI50 (DU-145) | GI50 (HCT-116) | GI50 (RPMI-8226) | GI50 (SK-MEL-28) | GI50 (U-251) | GI50 (SK-MEL-2) | GI50 (RXF 393) | GI50 (OVCAR-4) | GI50 (TK-10) | GI50 (CAKI-1) | GI50 (SNB-19) | GI50 (CCRF-CEM) | GI50 (NCI/ADR-RES) | GI50 (HCT-15) [µM] |
| --- | --- | --- | --- | --- | --- | --- | --- | --- | --- | --- | --- | --- | --- | --- | --- | --- | --- | --- | --- | --- |
| O=C(Nc1cnc(O)nc1O)Oc1ccccc1 | > 100 µM (inactive) | > 100 µM (inactive) | > 100 µM (inactive) | > 100 µM (inactive) | > 100 µM (inactive) | > 100 µM (inactive) | > 100 µM (inactive) | > 100 µM (inactive) | > 100 µM (inactive) | > 100 µM (inactive) | > 100 µM (inactive) | > 100 µM (inactive) | > 100 µM (inactive) | > 100 µM (inactive) | > 100 µM (inactive) | > 100 µM (inactive) | > 100 µM (inactive) | > 100 µM (inactive) | > 100 µM (inactive) | > 100 |
| CCC(=O)Oc1ccc2c(c1)c(=O)c1c(NCCCN(C)C)ccc3nnn2c31 | 4.36 µM (inactive) | 10.6 µM (inactive) | 1.9 µM (inactive) | 8.28 µM (inactive) | 5.56 µM (inactive) | 0.403 µM (active) | 1.04 µM (active) | 0.334 µM (active) | 0.767 µM (active) | 10.9 µM (inactive) | 1.42 µM (inactive) | 13 µM (inactive) | 1.83 µM (inactive) | 0.548 µM (active) | 0.818 µM (active) | 0.664 µM (active) | 2.06 µM (inactive) | 0.127 µM (active) | 3.31 µM (inactive) | 0.4 |

Source: ChEMBL document CHEMBL1201862, “PubChem BioAssay data set” (2004)
